{
  "source": "paper PMC12090182",
  "about": "“Repurposing of the RIPK1-Selective Benzo[1,4]oxazepin-4-one Scaffold for the Development of a Type III LIMK1/2 Inhibitor” (ACS Chemical Biology, 2025)",
  "type_in_all_cases": "binding",
  "key": {"RIPK1": {"target": "T1, RIPK1 (Homo sapiens, UniProt Q13546)", "T1 construct": "full-length LIMK1/2, RIPK1, BTK, and LRRK2 cloned in a frame in a NanoLuc-vector (Promega); host or cells: HEK293T", "T1 sequence (Q13546 1-671)": "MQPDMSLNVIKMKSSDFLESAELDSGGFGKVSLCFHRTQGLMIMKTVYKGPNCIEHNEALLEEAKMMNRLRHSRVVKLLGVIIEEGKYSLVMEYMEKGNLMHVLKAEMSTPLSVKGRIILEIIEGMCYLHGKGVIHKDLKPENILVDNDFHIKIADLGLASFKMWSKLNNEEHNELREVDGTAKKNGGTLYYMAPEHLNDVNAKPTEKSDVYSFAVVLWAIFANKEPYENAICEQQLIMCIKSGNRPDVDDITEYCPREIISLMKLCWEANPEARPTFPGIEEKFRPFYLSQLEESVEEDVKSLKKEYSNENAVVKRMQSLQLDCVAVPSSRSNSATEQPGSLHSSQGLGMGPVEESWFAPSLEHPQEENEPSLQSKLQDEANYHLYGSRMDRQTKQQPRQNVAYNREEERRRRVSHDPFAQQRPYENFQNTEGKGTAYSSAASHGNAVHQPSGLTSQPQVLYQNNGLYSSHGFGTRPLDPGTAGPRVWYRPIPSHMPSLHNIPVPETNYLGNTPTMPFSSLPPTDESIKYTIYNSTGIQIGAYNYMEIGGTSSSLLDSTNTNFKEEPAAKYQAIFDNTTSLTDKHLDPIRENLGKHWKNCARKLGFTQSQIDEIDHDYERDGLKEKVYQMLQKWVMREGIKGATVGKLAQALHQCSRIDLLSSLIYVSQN", "assay": "scanMAX KINOMEscan (Eurofins)"}, "[1]": {"target": "468 kinases including some pathogenic mutants (Homo sapiens, UniProt Q9UQ88)", "assay": "biochemical", "settings": "CDC2L2 (Entrez CDC2L2), 100 nM; read-out: Percent Control"}, "[2]": {"target": "468 kinases including some pathogenic mutants (Homo sapiens, UniProt Q9Y2H1)", "sequence (Q9Y2H1 whole entry, change not shown)": "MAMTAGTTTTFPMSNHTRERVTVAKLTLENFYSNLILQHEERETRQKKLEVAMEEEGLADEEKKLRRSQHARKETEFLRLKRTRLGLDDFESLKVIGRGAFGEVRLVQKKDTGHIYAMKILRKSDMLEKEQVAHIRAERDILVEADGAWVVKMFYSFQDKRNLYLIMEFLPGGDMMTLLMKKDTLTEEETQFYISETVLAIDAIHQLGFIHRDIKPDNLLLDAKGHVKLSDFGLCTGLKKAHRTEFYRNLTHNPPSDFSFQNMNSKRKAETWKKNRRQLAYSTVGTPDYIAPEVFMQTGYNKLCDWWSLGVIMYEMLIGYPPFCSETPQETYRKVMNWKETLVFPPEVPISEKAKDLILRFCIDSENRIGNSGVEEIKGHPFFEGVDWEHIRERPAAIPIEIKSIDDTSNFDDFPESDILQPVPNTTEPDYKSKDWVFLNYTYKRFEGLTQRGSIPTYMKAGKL", "assay": "biochemical", "settings": "NDR2 (Entrez STK38L), 100 nM; read-out: Percent Control"}, "[3]": {"target": "468 kinases including some pathogenic mutants (Homo sapiens, UniProt P43403)", "sequence (P43403 whole entry, change not shown)": "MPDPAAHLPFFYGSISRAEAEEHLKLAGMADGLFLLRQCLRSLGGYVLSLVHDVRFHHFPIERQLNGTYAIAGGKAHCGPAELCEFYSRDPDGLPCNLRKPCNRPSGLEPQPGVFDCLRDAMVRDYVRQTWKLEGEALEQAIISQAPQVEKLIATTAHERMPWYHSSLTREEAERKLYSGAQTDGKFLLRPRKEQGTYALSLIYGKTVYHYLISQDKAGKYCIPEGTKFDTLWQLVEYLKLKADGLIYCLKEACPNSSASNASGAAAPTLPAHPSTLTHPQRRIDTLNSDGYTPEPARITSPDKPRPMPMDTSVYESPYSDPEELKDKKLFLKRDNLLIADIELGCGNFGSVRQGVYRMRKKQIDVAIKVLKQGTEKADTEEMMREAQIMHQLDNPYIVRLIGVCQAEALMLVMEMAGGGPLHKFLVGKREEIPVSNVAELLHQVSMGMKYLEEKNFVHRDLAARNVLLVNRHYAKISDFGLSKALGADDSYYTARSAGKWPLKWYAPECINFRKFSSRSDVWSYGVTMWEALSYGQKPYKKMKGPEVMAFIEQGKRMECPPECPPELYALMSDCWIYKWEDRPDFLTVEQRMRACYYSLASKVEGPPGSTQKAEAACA", "assay": "biochemical", "settings": "ZAP70 (Entrez ZAP70), 1000 nM; read-out: Percent Control"}, "[4]": {"target": "468 kinases including some pathogenic mutants (Homo sapiens, UniProt P51957)", "assay": "biochemical", "settings": "NEK4 (Entrez NEK4), 1000 nM; read-out: Percent Control"}, "[5]": {"target": "468 kinases including some pathogenic mutants (Homo sapiens, UniProt P00533, DEL752-759)", "sequence (P00533 other isoform, or with tags, fused parts or gaps DEL752-759)": "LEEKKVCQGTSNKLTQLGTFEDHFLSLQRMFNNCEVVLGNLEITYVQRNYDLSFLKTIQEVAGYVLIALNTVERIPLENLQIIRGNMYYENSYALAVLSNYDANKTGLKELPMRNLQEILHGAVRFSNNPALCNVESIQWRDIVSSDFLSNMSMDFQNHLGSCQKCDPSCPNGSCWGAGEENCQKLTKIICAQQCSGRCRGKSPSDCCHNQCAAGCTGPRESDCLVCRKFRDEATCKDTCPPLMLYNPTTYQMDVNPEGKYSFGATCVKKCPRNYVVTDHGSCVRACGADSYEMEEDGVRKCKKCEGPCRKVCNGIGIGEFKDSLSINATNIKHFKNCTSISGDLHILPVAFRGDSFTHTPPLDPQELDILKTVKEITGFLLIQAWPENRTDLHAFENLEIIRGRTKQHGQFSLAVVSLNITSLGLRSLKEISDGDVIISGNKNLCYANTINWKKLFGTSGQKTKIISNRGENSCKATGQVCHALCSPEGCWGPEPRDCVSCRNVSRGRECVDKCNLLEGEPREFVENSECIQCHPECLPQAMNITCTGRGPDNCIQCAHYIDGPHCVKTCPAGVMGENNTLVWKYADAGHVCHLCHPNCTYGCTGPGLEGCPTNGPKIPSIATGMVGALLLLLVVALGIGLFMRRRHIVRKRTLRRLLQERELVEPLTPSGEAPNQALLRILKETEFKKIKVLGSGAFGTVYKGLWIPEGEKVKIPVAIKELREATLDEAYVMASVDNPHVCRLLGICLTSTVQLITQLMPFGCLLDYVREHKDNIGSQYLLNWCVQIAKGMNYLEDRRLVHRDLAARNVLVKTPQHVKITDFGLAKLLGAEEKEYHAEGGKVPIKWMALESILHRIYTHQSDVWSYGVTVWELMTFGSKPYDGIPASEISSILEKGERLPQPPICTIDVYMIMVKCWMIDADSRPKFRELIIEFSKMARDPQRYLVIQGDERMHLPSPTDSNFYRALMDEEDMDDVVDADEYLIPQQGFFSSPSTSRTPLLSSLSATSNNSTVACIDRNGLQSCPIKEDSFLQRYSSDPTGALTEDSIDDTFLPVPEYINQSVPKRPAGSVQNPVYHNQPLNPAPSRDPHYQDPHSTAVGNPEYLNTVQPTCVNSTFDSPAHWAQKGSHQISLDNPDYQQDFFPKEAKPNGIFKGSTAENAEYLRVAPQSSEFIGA", "assay": "biochemical", "settings": "read-out: Percent Control"}, "[6]": {"target": "468 kinases including some pathogenic mutants (Homo sapiens, UniProt Q13043)", "assay": "biochemical", "settings": "MST1 (Entrez STK4), 100 nM; read-out: Percent Control"}, "[7]": {"target": "468 kinases including some pathogenic mutants (Homo sapiens, UniProt P36507)", "sequence (P36507 whole entry, change not shown)": "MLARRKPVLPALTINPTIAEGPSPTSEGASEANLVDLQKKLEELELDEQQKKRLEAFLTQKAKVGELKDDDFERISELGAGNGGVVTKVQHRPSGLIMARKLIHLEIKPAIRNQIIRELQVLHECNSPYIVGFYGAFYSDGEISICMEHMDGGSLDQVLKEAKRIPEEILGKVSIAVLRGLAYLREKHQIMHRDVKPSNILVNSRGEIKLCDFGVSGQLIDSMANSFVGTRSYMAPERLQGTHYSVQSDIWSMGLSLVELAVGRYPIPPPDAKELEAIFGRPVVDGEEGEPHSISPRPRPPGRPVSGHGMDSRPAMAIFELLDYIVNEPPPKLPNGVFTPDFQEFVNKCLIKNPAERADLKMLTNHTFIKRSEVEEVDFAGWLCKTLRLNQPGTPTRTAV", "assay": "biochemical", "settings": "MEK2 (Entrez MAP2K2), 1000 nM; read-out: Percent Control"}, "[8]": {"target": "468 kinases including some pathogenic mutants (Homo sapiens, UniProt P54760)", "sequence (P54760 16-987, change not shown)": "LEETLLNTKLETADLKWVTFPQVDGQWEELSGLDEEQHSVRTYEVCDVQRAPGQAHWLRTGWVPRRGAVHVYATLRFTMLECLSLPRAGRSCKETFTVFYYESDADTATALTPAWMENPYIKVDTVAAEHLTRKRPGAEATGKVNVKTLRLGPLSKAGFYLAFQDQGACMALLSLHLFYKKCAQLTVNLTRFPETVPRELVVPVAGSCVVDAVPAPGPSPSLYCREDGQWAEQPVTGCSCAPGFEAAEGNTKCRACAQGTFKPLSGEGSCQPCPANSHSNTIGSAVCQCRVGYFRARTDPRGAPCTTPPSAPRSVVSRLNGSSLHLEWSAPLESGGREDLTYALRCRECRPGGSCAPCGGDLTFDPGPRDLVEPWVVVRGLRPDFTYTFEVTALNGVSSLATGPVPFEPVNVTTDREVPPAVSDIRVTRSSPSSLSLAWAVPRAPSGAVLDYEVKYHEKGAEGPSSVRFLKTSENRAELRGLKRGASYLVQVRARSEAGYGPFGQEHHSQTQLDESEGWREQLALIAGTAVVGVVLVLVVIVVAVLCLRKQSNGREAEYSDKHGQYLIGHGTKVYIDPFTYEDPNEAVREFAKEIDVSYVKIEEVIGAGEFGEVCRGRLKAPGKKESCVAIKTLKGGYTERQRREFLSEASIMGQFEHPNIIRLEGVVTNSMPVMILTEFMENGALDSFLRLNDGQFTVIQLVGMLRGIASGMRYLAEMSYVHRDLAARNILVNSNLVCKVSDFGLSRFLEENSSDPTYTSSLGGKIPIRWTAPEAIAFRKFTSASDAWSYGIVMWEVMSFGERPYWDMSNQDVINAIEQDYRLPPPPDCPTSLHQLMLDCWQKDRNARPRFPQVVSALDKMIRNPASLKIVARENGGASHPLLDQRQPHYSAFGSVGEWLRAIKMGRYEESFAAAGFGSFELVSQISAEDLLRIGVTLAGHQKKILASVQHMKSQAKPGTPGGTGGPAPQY", "assay": "biochemical", "settings": "EPHB4 (Entrez EPHB4), 100 nM; read-out: Percent Control"}, "[9]": {"target": "468 kinases including some pathogenic mutants (Homo sapiens, UniProt Q8IY84)", "assay": "biochemical", "settings": "NIM1 (Entrez MGC42105), 1000 nM; read-out: Percent Control"}, "[10]": {"target": "468 kinases including some pathogenic mutants (Homo sapiens, UniProt Q86Z02)", "assay": "biochemical", "settings": "HIPK1 (Entrez HIPK1), 100 nM; read-out: Percent Control"}, "[11]": {"target": "468 kinases including some pathogenic mutants (Homo sapiens, UniProt P07949, M918T)", "assay": "biochemical", "settings": "read-out: Percent Control"}, "[12]": {"target": "468 kinases including some pathogenic mutants (Homo sapiens, UniProt P35626)", "assay": "biochemical", "settings": "GRK3 (Entrez ADRBK2), 100 nM; read-out: Percent Control"}, "[13]": {"target": "468 kinases including some pathogenic mutants (Homo sapiens, UniProt Q8N4C8)", "assay": "biochemical", "settings": "MINK (Entrez MINK1), 100 nM; read-out: Percent Control"}, "[14]": {"target": "468 kinases including some pathogenic mutants (Homo sapiens, UniProt P36888, D835Y)", "assay": "biochemical", "settings": "read-out: Percent Control"}, "[15]": {"target": "468 kinases including some pathogenic mutants (Homo sapiens, UniProt Q96BR1)", "sequence (Q96BR1 whole entry, change not shown)": "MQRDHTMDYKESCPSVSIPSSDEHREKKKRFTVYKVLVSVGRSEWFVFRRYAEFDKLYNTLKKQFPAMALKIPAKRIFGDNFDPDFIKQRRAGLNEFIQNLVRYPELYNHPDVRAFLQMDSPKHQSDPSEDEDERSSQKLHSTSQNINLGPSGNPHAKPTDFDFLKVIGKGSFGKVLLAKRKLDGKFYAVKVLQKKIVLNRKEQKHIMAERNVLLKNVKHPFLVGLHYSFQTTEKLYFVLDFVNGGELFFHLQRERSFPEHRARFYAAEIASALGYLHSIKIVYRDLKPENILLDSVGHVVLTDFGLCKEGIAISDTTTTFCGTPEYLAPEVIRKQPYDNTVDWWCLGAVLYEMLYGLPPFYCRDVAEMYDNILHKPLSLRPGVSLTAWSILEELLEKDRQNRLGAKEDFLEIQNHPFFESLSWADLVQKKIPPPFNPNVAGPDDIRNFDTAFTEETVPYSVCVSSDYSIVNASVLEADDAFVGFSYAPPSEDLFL", "assay": "biochemical", "settings": "SGK3 (Entrez SGK3), 100 nM; read-out: Percent Control"}, "[16]": {"target": "468 kinases including some pathogenic mutants (Homo sapiens, UniProt Q9H422)", "assay": "biochemical", "settings": "HIPK3 (Entrez HIPK3), 100 nM; read-out: Percent Control"}, "[17]": {"target": "468 kinases including some pathogenic mutants (Homo sapiens, UniProt P42685)", "sequence (P42685 whole entry, change not shown)": "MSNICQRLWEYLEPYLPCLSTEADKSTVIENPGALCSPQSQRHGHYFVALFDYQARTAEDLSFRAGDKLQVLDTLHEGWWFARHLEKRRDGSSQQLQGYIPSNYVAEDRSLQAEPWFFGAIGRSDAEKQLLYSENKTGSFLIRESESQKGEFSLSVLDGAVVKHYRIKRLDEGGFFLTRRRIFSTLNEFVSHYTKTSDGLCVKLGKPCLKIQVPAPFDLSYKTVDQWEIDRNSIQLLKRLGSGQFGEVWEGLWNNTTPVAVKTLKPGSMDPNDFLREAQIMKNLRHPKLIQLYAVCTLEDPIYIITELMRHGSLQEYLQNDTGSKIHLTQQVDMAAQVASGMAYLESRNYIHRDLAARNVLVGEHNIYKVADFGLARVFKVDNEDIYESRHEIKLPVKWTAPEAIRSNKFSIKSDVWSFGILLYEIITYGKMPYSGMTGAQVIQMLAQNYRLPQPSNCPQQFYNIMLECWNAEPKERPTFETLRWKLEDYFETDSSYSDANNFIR", "assay": "biochemical", "settings": "FRK (Entrez FRK), 100 nM; read-out: Percent Control"}, "[18]": {"target": "468 kinases including some pathogenic mutants (Homo sapiens, UniProt P50750)", "assay": "biochemical", "settings": "CDK9 (Entrez CDK9), 100 nM; read-out: Percent Control"}, "[19]": {"target": "468 kinases including some pathogenic mutants (Homo sapiens, UniProt P78356)", "sequence (P78356 whole entry, change not shown)": "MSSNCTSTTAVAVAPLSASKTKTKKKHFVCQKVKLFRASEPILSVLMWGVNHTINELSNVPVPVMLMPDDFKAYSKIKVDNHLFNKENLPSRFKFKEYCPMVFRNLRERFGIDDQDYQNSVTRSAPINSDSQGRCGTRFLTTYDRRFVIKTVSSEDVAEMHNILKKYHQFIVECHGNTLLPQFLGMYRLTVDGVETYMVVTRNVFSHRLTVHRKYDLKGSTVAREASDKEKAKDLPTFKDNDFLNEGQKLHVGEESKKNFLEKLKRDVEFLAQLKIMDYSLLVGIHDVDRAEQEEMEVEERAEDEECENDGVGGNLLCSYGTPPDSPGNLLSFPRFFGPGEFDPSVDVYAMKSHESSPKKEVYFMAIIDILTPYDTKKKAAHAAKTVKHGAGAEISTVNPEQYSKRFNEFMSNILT", "assay": "biochemical", "settings": "PIP5K2B (Entrez PIP4K2B), 100 nM; read-out: Percent Control"}, "[20]": {"target": "468 kinases including some pathogenic mutants (Homo sapiens, UniProt P17948)", "assay": "biochemical", "settings": "FLT1 (Entrez FLT1), 100 nM; read-out: Percent Control"}, "[21]": {"target": "468 kinases including some pathogenic mutants (Homo sapiens, UniProt Q15303)", "assay": "biochemical", "settings": "ERBB4 (Entrez ERBB4), 100 nM; read-out: Percent Control"}},
  "note": "Read-outs that look alike come from different tables or passages of the source.",
  "data": [
    {"smiles": "CN1C(=O)[C@@H](N2CCc3c(nn(Cc4ccccc4)c3C(N)=O)C2=O)COc2cc(Cl)ccc21", "note": "[Compound 10, (S)-2-benzyl-6-(8-chloro-5-methyl-4-oxo-2,3,4,5-tetrahydrobenzo[b][1,4]oxazepin-3-yl)-7-oxo-4,5,6,7-tetrahydro-2H-pyrazolo[3,4-c]pyridine-3-carboxamide]", "values": [
      {"measurement": "remaining binding at 0.1 µM", "setting": "RIPK1; RIPK1 (Entrez RIPK1), 100 nM, read-out: Percent Control", "value": 55, "unit": "%"},
      {"measurement": "remaining binding at 1 µM", "setting": "RIPK1; RIPK1, 1 μM, read-out: POC (Top Hits @ 1 μM)", "value": 23, "unit": "%"},
      {"measurement": "remaining binding at 1 µM", "setting": "RIPK1; RIPK1, 1000 nM, read-out: Percent Control", "value": 23, "unit": "%"},
      {"measurement": "remaining activity at 0.1 µM", "setting": "[1]", "value": 100, "unit": "%"},
      {"measurement": "remaining activity at 0.1 µM", "setting": "[2]", "value": 71, "unit": "%"},
      {"measurement": "remaining activity at 1 µM", "setting": "[3]", "value": 100, "unit": "%"},
      {"measurement": "remaining activity at 1 µM", "setting": "[4]", "value": 100, "unit": "%"},
      {"measurement": "remaining activity at 0.1 µM", "setting": "[5]", "value": 100, "unit": "%"},
      {"measurement": "remaining activity at 0.1 µM", "setting": "[6]", "value": 58, "unit": "%"},
      {"measurement": "remaining activity at 1 µM", "setting": "[7]", "value": 100, "unit": "%"},
      {"measurement": "remaining activity at 0.1 µM", "setting": "[8]", "value": 72, "unit": "%"},
      {"measurement": "remaining activity at 1 µM", "setting": "[9]", "value": 100, "unit": "%"},
      {"measurement": "remaining activity at 0.1 µM", "setting": "[10]", "value": 73, "unit": "%"},
      {"measurement": "remaining activity at 0.1 µM", "setting": "[11]", "value": 82, "unit": "%"},
      {"measurement": "remaining activity at 0.1 µM", "setting": "[12]", "value": 98, "unit": "%"},
      {"measurement": "remaining activity at 0.1 µM", "setting": "[13]", "value": 94, "unit": "%"},
      {"measurement": "remaining activity at 0.1 µM", "setting": "[14]", "value": 95, "unit": "%"},
      {"measurement": "remaining activity at 0.1 µM", "setting": "[15]", "value": 90, "unit": "%"},
      {"measurement": "remaining activity at 0.1 µM", "setting": "[16]", "value": 77, "unit": "%"},
      {"measurement": "remaining activity at 0.1 µM", "setting": "[17]", "value": 75, "unit": "%"},
      {"measurement": "remaining activity at 0.1 µM", "setting": "[18]", "value": 92, "unit": "%"},
      {"measurement": "remaining activity at 0.1 µM", "setting": "[19]", "value": 55, "unit": "%"},
      {"measurement": "remaining activity at 0.1 µM", "setting": "[20]", "value": 78, "unit": "%"},
      {"measurement": "remaining activity at 0.1 µM", "setting": "[21]", "value": 79, "unit": "%"}
    ]}
  ]
}
